The text below walks through data of PMC7772935, “Plant-Derived Compounds as a Tool for the Control of Gastrointestinal Nematodes: Modulation of Abamectin Pharmacological Action by Carvone” (Frontiers in Veterinary Science, 2020).

Marks after values point to notes of the source that are not given here.

One series relates to sheep intestine. The arrangement: method as in PMID 24611483. As to conditions: Ussing chambers; cited from earlier work.
The test system of series [1] is bovine ileal explants. The series is described as follows: ABM accumulation in bovine ileal explants, modulation by R-CNE or IVM. As to conditions: 0.05 μM ABM; for Effect on ABM accumulation in intestinal explants: 3.33 mM R-CNE or 0.5 μM IVM, 15-60 min. It is filed as in vitro ADME, cattle. An excerpt: Cattle ileum samples were obtained from a local slaughterhouse ([…], Argentina) located 16 km away from the laboratory facilities.

In a further series the test system is P-gp. The arrangement: method as in PMID 16384552. The note with it: read-out: Concentration that inhibited the activated ATPase activity by 50%; cited from earlier work.
Series [2] concerns Haemonchus spp. eggs and larvae. Also on record: method as in PMID 28807309. The note with it: in vitro; cited from earlier work.
The subject of series [3] is Haemonchus contortus egg hatch. Also on record: method as in PMID 28807309. As to conditions: in vitro; cited from earlier work.
Series [4] deals with bovine ileal explants. An excerpt: (§1) Data are expressed as mean ± standard deviation (SD). […] Differences were considered statistically significant at p < 0.05.
Series [5] is described as follows: R-CNE plasma concentrations after oral administration to lambs. It is filed as in vivo. As to conditions: Corriedale and Texel crossbreed, sheep, 100 mg/kg oral, four doses every 24 h, after each dose. The procedure: (§2) All the animals had free access to water. Lambs were assigned to three experimental groups.
R-CNE analysis was performed according the technique described by Tao and Pereira ([23]), with modifications. Aliquots of plasma (0.25 mL) were mixed with acetonitrile, agitated and centrifuged. Supernatants were injected into the HPLC system fitted with a Kromasil C18 column. The mobile phase was water/acetonitrile (40/60) at an isocratic flow of 1.3 mL/min. R-CNE was analyzed using a UV detector (Shimadzu, SPD-10A).
as §1

Series [6] can be described thus: Undesirable effects after oral administration in the in vivo assay. As to conditions: lambs, R-CNE 100 mg/kg, four oral doses every 24 h.
Description: as §2

A short description of series [7]: ABM plasma disposition after oral administration to lambs. As to conditions: ABM 0.2 mg/kg oral, alone or with R-CNE 4 x 100 mg/kg every 24 h, mean ± SD, n = 8.
Description: as §1

In another series the test system is P-gp transport. Also on record: method as in PMID 25865432. The note with it: cited from earlier work.
For series [8], the system named is resistant gastrointestinal nematodes. Description: Fecal egg count reduction test in naturally infected lambs. It is filed as in vivo. On the procedure: as §2
The fecal samples were analyzed to obtain the epg counts. The coprocultures were prepared with 10 g of feces from a pool of each experimental group obtained on days−1 and 14. The nematode genera and species were identified through the third-stage larvae recovered from the coprocultures ([24]). The fecal egg count reduction test (FECRT) was calculated using the Abbott's formula ([25]), with modifications: […]
where T1 and T2 are the arithmetic mean epg counts in the treated group on days 0 and 14, respectively, and C1 and C2 are the arithmetic mean epg counts in the control group on days 0 and 14, respectively. The 95% confidence intervals were calculated following Coles et al. ([26]).

For the compound `CC[C@H](C)[C@H]1O[C@]2(CC[C@@H]1C)C[C@@H]1C[C@@H](C/C=C(\C)[C@@H](O[C@H]3C[C@H](OC)[C@@H](O[C@H]4C[C@H](OC)[C@@H](O)[C@H](C)O4)[C@H](C)O3)[C@@H](C)/C=C/C=C3\CO[C@@H]4[C@H](O)C(C)=C[C@@H](C(=O)O1)[C@]34O)O2` [IVM, ivermectin], the “Increase of Rho123 absorption in the presence of the inhibitor” value with sheep intestine is 69%. Besides, the “Effect on ABM accumulation in intestinal explants” value in the series on bovine ileal explants [1] was “significantly increased the accumulation of ABM in the intestinal explants at all incubation times”. Further, in the series with P-gp, the IC50 was 2500 nM.

In the case of `C=C(C)C1CC=C(C)C(=O)C1` (centres unmarked) [R-CNE, 5-isopropenyl-2-methyl-2-cyclohexenone], the “Concentrations necessary to obtain an efficacy >90%” value in series [2] is 370 µg/mL. Moreover, the 50% lethal concentration in [3] was 85 µg/mL. In the series on bovine ileal explants [4] (3.33 mM R-CNE, 15, 30, 45, 60 min), the “Effect on Rho123 concentrations in the intestinal explants” value is “significantly increased Rho123 concentrations in the intestinal explants at all incubation times”. The “Rho123 concentration in intestinal explants, % higher than Rho123 incubated alone” value in the series with bovine ileal explants [4] (60 min of incubation, 3.33 mM R-CNE, 0.5 μM Rho123) was 67 ± 21%. For the same compound, the “Effect on ABM accumulation in intestinal explants” value in the series on bovine ileal explants [1] was “increased the intestinal concentration of the synthetic anthelmintic ABM at 15 and 30 min of incubation”. In the series with bovine ileal explants [1] (30 min of incubation, 3.33 mM R-CNE), the “Intestinal concentration of ABM, % higher than control (ABM alone)” value is 28.1 ± 35.7%. This compound also returned a peak concentration (Cmax) in series [5] of 1790 ± 598 ng/mL. Further, in series [6], the “Undesirable effects after oral administration” value is “no undesirable effects were observed”.

As for `COC(=O)c1ccccc1-c1c2ccc(=N)cc-2oc2cc(N)ccc12` [Rho123, Rhodamine 123], in the series on bovine ileal explants [4] (male, Aberdeen Angus/Hereford crossbreed, cattle, 0.5 µM), the “Accumulation rate of Rho123” value is 0.69 ± 0.19 ρg Rho/min/mg tissue.

Turning to abamectin [ABM], in series [7], the “AUC0−168h of ABM” value is listed as 815.67 ± 303.1, the “Cmax of ABM” value is 16.20 ± 10.2^a μg/mL, the “Tmax of ABM” value is listed as 10.75 ± 9.6^a h and the “T½ el (elimination half-life) of ABM” value is 28.04 ± 8.1^a h. In addition, the “Concentrations necessary to inhibit P-gp transport, fold lower than to inhibit MRPs-mediated transport” value with P-gp transport is given as 3 fold. For the same compound, the “Mean epg counts Day 14” value in series [8] (14 days after oral administration, mean ± SD) was determined as 45 ± 121 epg. For the same compound, in series [8] (FECRT criteria), the “Classification of drug efficacy according to Coles et al.” value was “suspected of resistance”. Besides, the “Mean epg counts Day 0” value in [8] (before treatment, mean ± SD) is listed as 2,193 ± 858 epg. In series [8] (day 14, 95% confidence limits), the “FECR (LCL-UCL)” value is listed as 94.9 (65.0-99.0) %. Besides, in [8] (day 14, third-stage larvae), the “Proportion of Haemonchus spp. in coprocultures after treatment” value was found to be 88% and the “Proportion of Teladorsagia spp. in coprocultures after treatment” value was determined as 12%.
